These results are taken from US4254128A, “2-Adamantyl hydrazines and biocidal compositions thereof” (Teva Pharmaceutical Industries Ltd., priority 1977, dated 1981).

For orientation: MIC means the lowest concentration that inhibits growth of the organism.

Experiment [1] concerns Leptospira canicola Kipod 146. The experiment can be described thus: Anti leptospiral activity (minimal inhibition concentration). The class given is cell-based. To be noted: for MIC: Leptospira interrogans, KIPOD146, 240 h; for anti leptospiral activity: summary in words. As to the method:
The tests were carried out under the following conditions:
Leptospira: Leptospira canicola Kipod 146
Inoculum: 1-10^5 cells/ml
Incubation time: 10 days, 28° C.
Evaluation: Direct count in dark field microscopy after 4,7 and 10 days.
2 Minimal+0.5% albumin (Pentex)
3 Korthof rich medium with 8% serum.
4 Korthof rich medium with 2% serum.

In a further experiment the test system is Trypanosoma. In words: Anti trypanosoma test in vitro. In kind it is cell-based. The following applies: for Trypanosoma in vitro activity score: 37° C., scoring as in b (promastigotes); for activity against Trypanosoma: summary in words. As to the method:
Trypanosoma in RPM1 medium in vitro at 37° C. Scoring as in b.

The test system of a further experiment is L. tropica amastigotes. In words: Anti leishmania test, amastigotes in peritoneal exudate cells in vitro. The following applies: 37° C. In kind it is cell-based. The method, then:
(§1) a. amastigotes in peritoneal exudate cells in Mc Coy's medium in vitro at 37° C.
+++=clearance of all parasites in 24 hours
++=clearance of all parasites in 48 hours
+=clearance of all parasites in 72 hours
±=Partial clearance of parasites in 72 hours or more
-=No activity against parasites.

Another experiment relates to Leishmania. The experiment can be described thus: Anti leishmania tests, summary. In kind it is cell-based, L. tropica. To be noted: summary in words. As to the method: as §1
(§2) b. promastigotes in Mc Coy's medium in vitro at 27° C.

In a further experiment the test system is L. tropica promastigotes. The experiment can be described thus: Anti leishmania test, promastigotes in vitro. In kind it is cell-based. The following applies: 27° C. As to the method:
as §2
+++=No viable parasites after 24 hours
++=No viable parasites after 48 hours
+=No viable parasites after 72 hours
±=No viable parasites after 96 hours p2 -=viable parasites after 120 hours.

The subject of experiment [2] is albino mice. The experiment can be described thus: Stereotyped behaviour in mice. In kind it is in vivo, Male ICR albino mice. On the set-up: stereotyped behaviour score / Total Score / Mean Score: scale not given here. The following applies: 50 mg/kg i.p. The method, then:
Male ICR albino mice weighing 25-30 g were put in cages with a metal grid floor, 4 in each cage. Drugs were injected intraperitoneally and stereotyped behaviour (sniffing, biting, repetitive head movement) was evaluated every 30 min.

The next experiment deals with albino rats. In words: Antiparkinson activity (catalepsy produced by haloperidol). The class given is in vivo, Male Charles River albino rats. The following applies: 80 mg/kg i.p. The method, then:
Male Charles River albino rats, weighing 200-250 g, were used. Catalepsy was produced by haloperidol, 5 mg/kg i.p. The animals were placed with their front paws on a horizontal bar, about 10 cm above the ground, and animals were considered cataleptic if not changing posture for at least 30 sec. Cataleptic animals were injected i.p. with one of the drugs at a dose of 40-80 mg/kg. Catalepsy was estimated again at the intervals indicated.

In experiment [3] the test system is albino mice. In words: Stereotyped behaviour in mice. In kind it is in vivo, Male ICR albino mice. On the set-up: scale not given here. The following applies: 50 mg/kg i.p.
The mark [4] stands for this setting: minimal + Pentex (0.5% albumin).

Structures can show the parent of a compound that is named as a salt.

With `CN(C)NC1C2CC3CC(C2)CC1C3` (centres unmarked) [Example 1, 1-(2'-Adamantyl)-2,2-dimethylhydrazine hydrochloride], the MIC in experiment [1] (Korthof + 8% serum), in experiment [1] (setting [4]) and in experiment [1] (minimal medium) was 12.5 µg/mL in each case. The anti leptospiral activity entry in experiment [1] was “active”.

Consider `c1ccc(NNC2C3CC4CC(C3)CC2C4)cc1` (centres unmarked) [Example 3, 1-(2'-Adamantyl)-2-phenylhydrazine hydrochloride], for which the “Trypanosoma in vitro activity score” value is “+ (No viable parasites after 72 hours)” with Trypanosoma (10 μg) and “+++ (No viable parasites after 24 hours)” in the experiment with Trypanosoma (100 μg). Also, the “activity against Trypanosoma” value in the experiment on Trypanosoma is “active”. The MIC in experiment [1] (Korthof + 8% serum) turned out to be 100 µg/mL; in experiment [1] (minimal medium) it was 6.25 µg/mL. The anti leptospiral activity result in experiment [1] is given as “active”.

For the compound `FC(F)(F)c1cccc(NNC2C3CC4CC(C3)CC2C4)c1` (centres unmarked) [Example 6, 1-(2'-Adamantyl)-2-(m-trifluoromethylphenyl)hydrazine hydrochloride], the MIC came out at 50 µg/mL in experiment [1] (Korthof + 8% serum) and 12.5 µg/mL in experiment [1] (minimal medium). The anti leptospiral activity result in experiment [1] is given as “active”.

Consider `c1ccc(NNC2C3CC4CC(C3)CC2C4)nc1` (centres unmarked) [Example 8, 1-(2'-Adamantyl)-2-(2"-pyridyl)hydrazine hydrochloride], for which the “Trypanosoma in vitro activity score” value in the experiment on Trypanosoma (10 μg) was “+ (No viable parasites after 72 hours)”; in the experiment on Trypanosoma (100 μg), “+++ (No viable parasites after 24 hours)”. Further, the “activity against Trypanosoma” value in the experiment with Trypanosoma was “active”. Further, the “Leishmania amastigote activity score” value with L. tropica amastigotes (10 μg) is “+ (clearance of all parasites in 72 hours)”; in the experiment on L. tropica amastigotes (100 μg) it was “+++ (clearance of all parasites in 24 hours)”. For the same compound, the “activity against Leishmania” value with Leishmania is given as “active”.

For `C1CCCN(NC2C3CC4CC(C3)CC2C4)CC1` (centres unmarked) [Example 11, 1-(2'-Adamantylamino)homopiperidine hydrochloride], the “Trypanosoma in vitro activity score” value is listed as “+ (No viable parasites after 72 hours)” in the experiment with Trypanosoma (10 μg) and “+++ (No viable parasites after 24 hours)” in the experiment with Trypanosoma (100 μg). The “activity against Trypanosoma” value in the experiment with Trypanosoma is “active”.

In the case of `CNNC1C2CC3CC(C2)CC1C3` (centres unmarked) [Example 25, 1-(2'-Adamantyl)-2-methylhydrazine hydrochloride], the “Leishmania promastigote activity score” value with L. tropica promastigotes (100 μg) was “+++ (No viable parasites after 24 hours)”. Also, the “Leishmania amastigote activity score” value with L. tropica amastigotes (100 μg) was “++ (clearance of all parasites in 48 hours)”. The “activity against Leishmania” value with Leishmania is “active”.

In the case of `CN(CC(=O)O)NC1C2CC3CC(C2)CC1C3` (centres unmarked) [Example 37, [2-(2'-Adamantyl)-1-methylhydrazino]acetic acid hydrochloride], the MIC in experiment [1] (Korthof + 2% serum) was 12.5 µg/mL; in experiment [1] (Korthof + 8% serum), 12.5 to 25 µg/mL; in experiment [1] (setting [4]) it was 25 µg/mL; in experiment [1] (minimal medium), 25 µg/mL. Moreover, in experiment [1], the anti leptospiral activity result was “active”.

In the case of `CC(C)NNC1C2CC3CC(C2)CC1C3` (centres unmarked) [Example 51, 1-(2'-Adamantyl)-2-isopropylhydrazine hydrochloride], the “Trypanosoma in vitro activity score” value in the experiment with Trypanosoma (100 μg) is “+++ (No viable parasites after 24 hours)”. The “activity against Trypanosoma” value with Trypanosoma is reported as “active”. Besides, the “Leishmania amastigote activity score” value in the experiment with L. tropica amastigotes (10 μg) is given as “± (Partial clearance of parasites in 72 hours or more)”; in the experiment with L. tropica amastigotes (100 μg), “++ (clearance of all parasites in 48 hours)”. Moreover, the “activity against Leishmania” value in the experiment with Leishmania is recorded as “active”.

As for `N=C(N)c1ccc(OCCCCCOc2ccc(C(=N)N)cc2)cc1` [Pentamidine, reference compound], the “Trypanosoma in vitro activity score” value with Trypanosoma (100 μg) is reported as “++ (No viable parasites after 48 hours)”. In addition, the “Leishmania promastigote activity score” value with L. tropica promastigotes (10 μg) and in the experiment with L. tropica promastigotes (100 μg) was “+++ (No viable parasites after 24 hours)” in each case.

For the compound `NC12CC3CC(CC(C3)C1)C2` [Symmetrel, reference compound], the stereotyped behaviour score amounted to 0 in the experiment with albino mice [2] (0 min, mouse 1); 0 in the experiment on albino mice [2] (0 min, mouse 2); 0 in the experiment with albino mice [2] (0 min, mouse 3); 0 in the experiment with albino mice [2] (0 min, mouse 4); 1 in the experiment on albino mice [2] (30 min, mouse 1); 1 in the experiment on albino mice [2] (30 min, mouse 2). Besides, the stereotyped behaviour score came out at 1 in the experiment on albino mice [2] (30 min, mouse 3); 1 in the experiment on albino mice [2] (30 min, mouse 4); 1 with albino mice [2] (45 min, mouse 3); 1 in the experiment with albino mice [2] (45 min, mouse 4); 2 in the experiment on albino mice [2] (60 min, mouse 1); 2 with albino mice [2] (60 min, mouse 2). The stereotyped behaviour score in the experiment with albino mice [2] (60 min, mouse 3) was 1; with albino mice [2] (60 min, mouse 4), 1; with albino mice [2] (90 min, mouse 1), 1; in the experiment with albino mice [2] (90 min, mouse 2) it was 1; with albino mice [2] (90 min, mouse 3), 2; in the experiment with albino mice [2] (90 min, mouse 4), 1. Further, the stereotyped behaviour score with albino mice [2] (120 min, mouse 1) was found to be 2; with albino mice [2] (120 min, mouse 2), 2; in the experiment with albino mice [2] (120 min, mouse 3), 2; in the experiment on albino mice [2] (120 min, mouse 4) it was 2; with albino mice [2] (135 min, mouse 1) it was 2; with albino mice [2] (135 min, mouse 2), 2. Moreover, the stereotyped behaviour score came out at 2 in the experiment on albino mice [2] (150 min, mouse 1); 2 in the experiment on albino mice [2] (150 min, mouse 2); 2 with albino mice [2] (150 min, mouse 3); 2 with albino mice [2] (150 min, mouse 4); 2 in the experiment on albino mice [2] (180 min, mouse 1); 2 in the experiment with albino mice [2] (180 min, mouse 2). Further, the stereotyped behaviour score in the experiment on albino mice [2] (180 min, mouse 3) was 2; with albino mice [2] (180 min, mouse 4) it was 2; with albino mice [2] (210 min, mouse 1), 2; in the experiment on albino mice [2] (210 min, mouse 2) it was 2; in the experiment on albino mice [2] (210 min, mouse 3) it was 2; in the experiment on albino mice [2] (210 min, mouse 4) it was 1. Further, the stereotyped behaviour score in the experiment with albino mice [2] (240 min, mouse 1) is on record as 2; in the experiment with albino mice [2] (240 min, mouse 2) it was 2; in the experiment with albino mice [2] (240 min, mouse 3), 2; in the experiment on albino mice [2] (240 min, mouse 4), 0; in the experiment on albino mice [3] (45 min, mouse 1), 1; with albino mice [3] (45 min, mouse 2), 1. Besides, the stereotyped behaviour score in the experiment on albino mice [3] (135 min, mouse 3) is recorded as 2; with albino mice [3] (135 min, mouse 4), 2. Further, in the experiment with albino mice [2] (mean of 4 mice), the “Mean Score” value is on record as 16. Besides, the “Total Score” value was determined as 17 in the experiment on albino mice [2] (mouse 1), 17 in the experiment on albino mice [2] (mouse 2), 17 in the experiment on albino mice [2] (mouse 3) and 13 with albino mice [2] (mouse 4). Moreover, the anticataleptic effect is 0/4 in the experiment on albino rats (rat 1); 2/4 in the experiment on albino rats (rat 2); 3/4 in the experiment on albino rats (rat 3); 3/4 in the experiment on albino rats (rat 4); 3/4 in the experiment on albino rats (rat 5).
